Converted amounts (≈) assume the structure as drawn. Blank lines part the entries; values can stand above or below the compound they belong to.
What was measured:
[1] = test system: porcine CSM (coronary artery smooth muscle cells); experiment: CSM proliferation/viability by MTT assay on collagen matrix/DPCPX-loaded PU film; type: cell-based, Ossabaw pigs; details: no DPCPX release, day 4
Procedure: A drug eluting film coated on the cover glass was placed in each well of a 24-well plate for a cell culture study.
Hearts were harvested from Ossabaw pigs. Coronary arteries dissected from the hearts were placed in a physiological buffer. Porcine CSM were enzymatically dispersed from coronary arteries using collagenase solutions. Primary cultured CSM were subcultured at 37° C. with 5% CO2 in DMEM containing 10% fetal bovine serum (FBS). CSM cultured with 80% confluence were used between passage 4 and 10.
The CSM were seeded on the surface of type I collagen that was gelated on the DPCPX-loaded PU film. The DPCPX-loaded PU films with various drug/polymer ratios and pure PU film as a control were placed in 24-well plates. Collagen solution was prepared by mixing eight parts of PURECOL (3 mg/mL) with one part of 10×PBS. The pH of the collagen solution was adjusted to 7.4 by adding 0.01 N HCl and 0.1 M NaOH. […] Subcultured CSM were suspended by trypsinization, counted and seeded on the collagen matrix/DPCPX-loaded PU film in 24 wells. […]
After 4 days, cell proliferation was estimated using an MTT cell growth assay kit (Chemicon International). […] The absorbance was read at 490 nm, which was directly proportional to the number of living cells. The measured absorbance in each treatment group was compared to the percent of control. […]

porcine CSM = details: cited from earlier work
[2] = In vitro DPCPX release from coated stents in PBS (HPLC); type: physicochemical; details: stents coated with DPCPX in polymer-1 or polymer-2 (PLGA), 30% and 50% DPCPX/polymer, PBS buffer
Procedure: The drug elution profiles of the two different sets of PU films were examined instead of expanded state of stents. […] The release rate was slightly accelerated with the increase in the drug/PU ratio on the stent coated at the constant drug density of 1 μg/mm^2 (30%>20%>10% DPCPX/PU ratio).
In the drug release study, 2 mL of PBS buffer was used as a release medium which was replaced with a fresh solution every day. Release profiles may be partially affected by dissolution-limited release in addition to diffusion-limited release. Previous studies used 1.5 mL of medium with addition of 10% ethanol or 1.5 mL of PBS with 0.005% Tween 20 per stent. Addition of ethanol in the release medium removed the solubility limitation, but ethanol affected the release profiles as confirmed in the accelerated release studies; thus, ethanol was not used in this study.
Stainless steel stents were coated with polymer and DPCPX in concentrations that optimized in vitro elution kinetics of DPCPX (FIG. 5). Stents used for in vivo testing were coated with 300 μg DPCPX and 700 μg PLGA ([…]) polymer. A1R selective antagonist-DPCPX was dissolved in THF along with polymer-1 and polymer-2. The solutions were spray coated on stainless steel stents. […] The amounts of released DPCPX were analyzed using HPLC. […]

physchem = details: thermodynamic from solid
[3] = test system: in-stent coronary stenosis in metabolic syndrome pigs; experiment: In-stent stenosis by IVUS 4 weeks after coronary stenting; type: in vivo, Ossabaw miniature swine; details: IVUS at 4 weeks
From the text: Under angiographic guidance, polymer- and DPCPX-eluting stents were placed in either left circumflex (CFX) or left anterior descending (LAD) artery of anesthetized male Ossabaws by random assignment.
A stainless steel stent deployment was utilized to cause vascular injury, which leads to coronary neointima formation (in-stent stenosis) in lean Ossabaw swine and in Ossabaw swine with metabolic syndrome (also known as pre-diabetes).
Stents were inflated to 1.1× of lumen diameter. The right coronary artery (RC) served as a non-stented control. Pigs were allowed to recover for 4 weeks, then sacrificed, and coronary arteries were harvested for tissue analysis.
In-stent stenosis was quantified as the percent area covered with stenotic lesions in in-stent coronary segments in vivo using intravascular ultrasound (IVUS) right before sacrifice. Percent area in-stent stenosis=Area of Neointima/Area of Original Lumen indicated by stent struts×100.
Bare metal and paclitaxel stents were deployed in coronary arteries of lean and metabolic syndrome (MetS) pigs (n=5/group) with stent:artery ratios at 1.0 (A) and 1.3 (B), *p<0.01. Polymer-coated (Polymer, control) and DPCPX-eluting stents (DPCPX) were deployed concurrently in coronary arteries with stent:artery ratio of 1.1 in lean and MetS pigs (n=5/group, C), *p<0.01. (A-C) IVUS was done 4 weeks after stenting in vivo to evaluate in-stent stenosis. Percent area stenosis of in-stent segments was quantified by IVUS.

[4] = test system: ERK, JNK and PI3K-AKT signaling pathways in CSM; details: dose-dependent manner; cited from earlier work

Compound: OC[C@H]1O[C@@H](n2cnc3c(NC4CCCC4)nc(Cl)nc32)[C@H](O)[C@@H]1O [CCPA, 2-Chloro-N-6-cyclopentyladenosine]
CSM viability (MTT), % of first control ([1]; 0.1 μM CCPA): 121.8%
CSM viability (MTT), % of first control ([1]; 10 μM CCPA): 112.2%
DNA synthesis, protein synthesis, and cell number in porcine CSM (porcine CSM): increase

period over which release of DPCPX was sustained [2]: ≥ 28 days
solubility at 48 h (physchem; PBS with 0.05% Tween 20, 37 °C, pH 7.4, aqueous with cosolvent or surfactant or cyclodextrin): 1.63 ± 0.08 µg/mL (≈ 5.35 µM)
solubility at 48 h (physchem; PBS, 37 °C, pH 7.4, aqueous buffer): 1.69 ± 0.72 µg/mL (≈ 5.55 µM)
solubility at 48 h (physchem; distilled water, pH adjusted, 37 °C, pH 3, aqueous buffer): ~1.6 µg/mL (≈ 5.26 µM)
solubility at 48 h (physchem; distilled water, pH adjusted, 37 °C, pH 11, aqueous buffer): 38.1 ± 2.3 µg/mL (≈ 125 µM)
solubility at 48 h (physchem; water, 37 °C, pH 7.4, water): 1.62 ± 0.12 µg/mL (≈ 5.32 µM)
Compound: CCCn1c(=O)c2[nH]c(C3CCCC3)nc2n(CCC)c1=O [DPCPX, 1,3-dipropyl-8-cyclopentyl xanthine]
decrease in in-stent stenosis ([3]; eluting stent (300 μg DPCPX, 700 μg PLGA) at 1.1 times lumen diameter, vs polymer-coated stent): 53%
adenosine-induced ERK, JNK, and AKT phosphorylation [4]: significantly decreases

Compound: CC(=O)O[C@H]1C(=O)[C@@]2(C)[C@H]([C@H](OC(=O)c3ccccc3)[C@]3(O)C[C@H](OC(=O)[C@H](O)[C@@H](NC(=O)c4ccccc4)c4ccccc4)C(C)=C1C3(C)C)[C@]1(OC(C)=O)CO[C@@H]1C[C@@H]2O [Paclitaxel]
decrease in in-stent stenosis ([3]; metabolic syndrome pigs, eluting stent deployed at 1.0 times lumen diameter, vs bare metal stent): 47%
decrease in in-stent stenosis ([3]; metabolic syndrome pigs, eluting stent deployed at 1.3 times lumen diameter, vs bare metal stent): 55%

Compound: Nc1ncnc2c1ncn2[C@@H]1O[C@H](CO)[C@@H](O)[C@H]1O [adenosine]
DNA synthesis, protein synthesis, and cell number in porcine CSM (porcine CSM): increase
